Residues, ends and D or L forms follow the SMILES beside them. *: point of attachment. Cbz = O=C(OCc1ccccc1)*
Key:
recombinant OSBP-myc-his = molecular target: T1, recombinant OSBP-myc-his (Homo sapiens, UniProt P22059); test: competitive binding assay, displacement of [3H]-25-OHC from OSBP (charcoal-dextran, liquid scintillation counting); details: for displacement of OSBP-bound [3H]-25-OHC: at low micromolar-concentrations
T1 construct: made in house; host or cells: HEK-293T (crude S100 lysate, not purified)
T1 sequence (P22059 1-807): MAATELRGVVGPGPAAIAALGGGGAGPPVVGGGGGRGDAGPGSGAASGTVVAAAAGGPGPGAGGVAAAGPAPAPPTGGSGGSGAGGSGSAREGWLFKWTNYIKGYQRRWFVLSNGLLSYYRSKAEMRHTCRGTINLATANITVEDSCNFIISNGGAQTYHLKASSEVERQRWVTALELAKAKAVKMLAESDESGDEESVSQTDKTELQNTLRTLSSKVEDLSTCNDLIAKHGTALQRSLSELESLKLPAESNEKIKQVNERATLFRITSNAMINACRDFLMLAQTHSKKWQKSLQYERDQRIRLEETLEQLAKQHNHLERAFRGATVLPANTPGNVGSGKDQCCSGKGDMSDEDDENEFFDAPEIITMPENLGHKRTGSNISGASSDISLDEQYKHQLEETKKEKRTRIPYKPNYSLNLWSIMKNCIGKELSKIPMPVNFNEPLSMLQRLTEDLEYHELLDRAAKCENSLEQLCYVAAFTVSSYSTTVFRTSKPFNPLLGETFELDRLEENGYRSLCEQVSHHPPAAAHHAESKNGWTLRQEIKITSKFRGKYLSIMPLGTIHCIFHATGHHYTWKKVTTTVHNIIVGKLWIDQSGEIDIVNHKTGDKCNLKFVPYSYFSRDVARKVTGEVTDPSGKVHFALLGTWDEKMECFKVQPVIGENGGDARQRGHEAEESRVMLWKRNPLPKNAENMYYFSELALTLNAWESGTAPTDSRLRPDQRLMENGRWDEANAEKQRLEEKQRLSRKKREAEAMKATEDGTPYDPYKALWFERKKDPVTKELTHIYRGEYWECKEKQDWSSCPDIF
Protocol: It has been determined that CRAMs inhibit the binding of radiolabelled 25-OHC ([^3H]-25-OHC) to recombinant OSBP-myc-his and ORP4-myc-his overexpressed in HEK-293T lysate (FIG. 18). It is known that 25-hydroxycholesterol is a high affinity ligand for OSBP and ORP4. Increasing concentrations of CRAMs or OSW-1 analogs were incubated with 20 nM [^3H]-25-OHC in OSBP-myc-his or ORP4-myc-his S100 lysate for 16 h at 4° C. after which unbound sterol was removed using charcoal-dextran and the bound sterol quantified by LCS (liquid scintillation counting).
These experiments provide evidence that CRAMs are ligands of OSBP and ORP4, and in the case of 1 and 2, they are high affinity ligands.
To measure the Kis of CRAMs to OSBP and ORP4 reported above, a previously reported dextran-coated charcoal assay was adapted into a 96-well format. […] To solve these limitations a binding SPA (scintillation proximity assay) for OSBP/ORPs (FIG. 26) will be developed.

HCT-116 p21−/− cells [1] = test: growth inhibition of HCT-116 cells lacking p21 (p21 dependence); assay type: cell-based; details: for dependence of growth inhibition on p21 status: HCT-116 p21−/− versus p21+/+
From the text: Values are mean±SD of 3 individual experiments each performed in sextublicate or from a single experiment performed in sextublicate. Values for […] were reported in the literature (see Beutler J A, Shoemaker R H, Johnson T, Boyd M R. “Cytotoxic geranyl stilbenes from Macaranga schweinfurthii,” J. Nat. Prod. 1998, 61(12), 1509-12).
[5] […] This shared p21 differential cytotoxicity supports the idea of a common CRAM mechanism of action and likely similar target. […] However, caution has to be exercised in concluding that compounds found to be selective for p21 deficient HCT-116 cells are truly synthetic lethal with p21. It was recently reported that compounds shown to be hypersensitive to HCT-116 p21^−/− cells was actually due to an overexpression of p53 in that cell line. Subsequent siRNA knockdown of p53 eliminated the apparent p21 synthetic lethality.

[2] = test system: HCT-116 p21−/− shNT and shOSBP cells; test: CRAM cytotoxicity after shRNA knockdown of OSBP, HCT-116 p21−/−; assay type: cell-based; details: HCT-116 p21−/−; for sensitization (GI50 shift) by OSBP knockdown: OSBP knockdown by 84%
From the text: FIG. 17 depicts CRAM cytotoxicity in shRNA OSBP knockdown cell lines. A: Dose curves from a representative experiment. B: GI50 values of CRAMs and control compounds in HCT-116 p21−/− shNT and shOSBP cells and densitometric analysis of OSBP-levels. shNT=non-targeting shRNA, shOSBP=OSBP-targeting shRNA; * P=0.0006 (n=4), ** P=0.0002 (n=3), *** P=0.0003 (n=3), and **** P≦0.0001 (n=7) compared to shNT-treated cells.
To determine whether the cytotoxicity of CRAMs depends on the amount of OSBP in cells, the effects of shRNA knockdown of OSBP on the growth inhibitory activity of CRAMs was measured. Treatment of HCT-116 p21^−/− cells with shRNA targeted to OSBP [24] caused an 84% reduction in the level of OSBP as measured by western blot (FIG. 17B, bottom right).

pERK1/2 in HCT-116 cells = test: Western blot of pERK1/2; assay type: cell-based; details: cephalostatin 1 50 nM, 25-OHC 20 μM 12 h
Protocol: FIG. 21 depicts Western blot and densitometry analysis of pERK1/2 in HCT-116 cells during treatment with 50 nM cephalostatin 1. 25-OHC (20 μM) and okadaic acid (OKA, 10 nM) treatments were for 12 h and 24 h, respectively.
As another test of whether CRAMs perturb a known OSBP function, it was determined whether CRAMs induce changes to the phosphorylation state of ERK1/2. As mentioned above, 25-OHC binds OSBP and causes disruption of a complex between OSBP and the phosphatases HePTP and PP2A. This blocks dephosphorylation of pERK1/2, leading to a persistence of pERK1/2. Opposing this effect is cholesterol, which binds OSBP, inducing formation of the OSBP-HePTP-PP2A ternary complex, causing ERK1/2 dephosphorylation (FIG. 13).

[3] = test system: OSBP localization in HCT-116 p21+/+ cells; test: OSBP localization by immunofluorescence confocal microscopy; assay type: cell-based; details: compound exposure 4 h (OSW-1 1 nM)
Protocol: FIG. 22 depicts OSBP localization in HCT-116 p21^+/+ cells imaged by immunofluorescence confocal microscopy. Immunofluorescence was used to image OSBP and the trans-Golgi protein p230 after compound exposure for 4 h. […] was labeled with Hoescht 33342.
As another way to investigate how CRAMs may affect OSBP, immunofluorescence (IF) experiments were performed in HCT-116 p21^+/+ cells to determine whether OSBP localization was altered upon treatment with different CRAMs. In untreated cells, OSBP resides largely at ER/cytoplasmic sites with a partial localization at the Golgi (FIG. 22A).
This translocation has been reported many times in the literature as an effect of 25-OHC on OSBP. Treatment of cells with OSW-1 at 1 nM for 4 h caused a dramatic and unprecedented effect on OSBP localization (FIG. 22C). […] In this case p230 has been dispersed (see […]). The translocation of OSBP induced by 2 is distinct from that of 25-OHC. […] They also reveal that the effects on OSBP translocation by 1 and 2 are distinct from 25-OHC.

OSBP protein levels = OSBP protein levels by western blot; assay type: cell-based
Protocol: One unanticipated discovery from the IF studies was that, after several hours, CRAM treatment of cells caused a significant reduction in the intensity of the OSBP fluorescent signal. This could mean that CRAMs are inducing a reduction in OSBP protein levels: an effect not observed with 25-OHC. The amount of OSBP protein in cells exposed to CRAMs was measured by western blot. […] Cephalostatin 1 induced a 70% reduction in OSBP at 12 h, and OSW-1 caused a 69% reduction in OSBP at 24 h. […] This supports a situation where reduction of OSBP levels by 1 and 2 is a result of a proteasome-dependent degradation process. One possible scenario is that 1 and 2 are also causing protein level reductions of ORPs and this is the source of cytotoxicity of CRAMs.

HCT-116 p21−/− cells [4] = details: cited from earlier work
HCT-116 p21+/+ cells = details: literature value [6]; cited from earlier work
[5] = cytotoxicity of 25-OHC (cells not named); assay type: cell-based; details: doses up to 1000 times its OSBP Kd
NCI-60 = details: read-out: GI50, average against the NCI-60; cited from earlier work
tumor xenograft = details: i.p. 9.3 mg/kg (Q2D×4); cited from earlier work

C[C@@H]1[C@]2(O[C@H]3C=C4[C@@H]5CC[C@H]6Cc7nc8c(nc7C[C@]6(C)[C@H]5C[C@@H](O)[C@]4(C)[C@]31O)C[C@@H]1CC[C@H]3C4=CC[C@@H]5[C@H](C)[C@@]6(OC[C@]45C(=O)C[C@@H]3[C@@]1(C)C8)OC(C)(C)C[C@H]6O)O[C@](C)(CO)C[C@H]2O [Cephalostatin 1]
Ki (recombinant OSBP-myc-his; 20 nM [3H]-25-OHC, OSBP-myc-his S100 lysate (HEK-293T), 16 h at 4° C., read-out: Ki, displacing OSBP-bound [3H]-25-OHC): 50 nM | differential GI50, HCT-116 p21−/− versus p21+/+ (HCT-116 p21−/− cells [1]; 48 h (FIG. 14)): 44 fold | sensitization (GI50 shift) by OSBP knockdown [2]: 3.5 fold | pERK1/2 levels (pERK1/2 in HCT-116 cells): significant increase in pERK1/2 starting at 12 h and persisting for at least 24 h | effect on OSBP localization [3]: caused a significant amount of OSBP to co-localize with the plasma membrane | effect on OSBP protein levels (OSBP protein levels): time-dependent reduction in OSBP protein levels | reduction in OSBP (OSBP protein levels; at 12 h): 70%

COc1cc(/C=C/c2cc(O)c(C/C=C(\C)CCC=C(C)C)c(O)c2)cc2c1O[C@]1(C)C[C@@H](O)[C@@H](O)C(C)(C)[C@H]1C2 [Schweinfurthin B, schweinfurthin B, reference compound]
effect on OSBP localization [3]: induced OSBP translocation, but in a manner similar to the 25-OHC effect

C[C@H]1CCC/C=C/[C@@H]2C[C@H](O)C[C@H]2[C@H](O)/C=C/C(=O)O1 [brefeldin A, reference compound]
sensitization by OSBP knockdown [2]: does not sensitize

CC(C)C[C@@H](C=O)NC(=O)[C@H](CC(C)C)NC(=O)[C@H](CC(C)C)NC(=O)OCc1ccccc1 [MG132, reference compound] (Cbz-Leu-Leu-Leu-aldehyde)
effect on OSBP protein levels (OSBP protein levels): complete rescue of OSBP levels

ritterazine B
displacement of OSBP-bound [3H]-25-OHC (recombinant OSBP-myc-his): displaced the bound ligand | dependence of growth inhibition on p21 status (HCT-116 p21−/− cells [1]): selectively growth inhibitory for HCT-116 cells lacking p21 | sensitization by OSBP knockdown [2]: sensitized

CC(/C=C/C=C(C)/C=C/C=C(\C)C(=O)O)=C1/C(=O)C[C@H]2[C@@]3(C)CCC(=O)C(C)(C)[C@@H]3CC[C@]12C [(−)-stellettin E]
GI50 (HCT-116 p21−/− cells [4]; literature value [6]): 39 nM | more cytotoxic to HCT-116 p21−/− compared to parental HCT-116 (HCT-116 p21−/− cells [4]; ratio of GI50, literature): 117 times | more active in HCT-116 lacking the p21 protein (HCT-116 p21−/− cells [4]; reported in the literature): 117 fold | GI50 (HCT-116 p21+/+ cells): 4570 nM

C[C@H](CCCC(C)(C)O)[C@H]1CC[C@H]2[C@@H]3CC=C4C[C@@H](O)CC[C@]4(C)[C@H]3CC[C@]12C [25-OHC, 25-hydroxycholesterol, reference compound]
pERK1/2 levels (pERK1/2 in HCT-116 cells): had the same effect as CRAMs | effect on OSBP localization [3]: OSBP translocates to the Golgi | effect on OSBP protein levels (OSBP protein levels): not observed | cytotoxicity [5]: not cytotoxic

schweinfurthin A
displacement of OSBP-bound [3H]-25-OHC (recombinant OSBP-myc-his): displaced the bound ligand | dependence of growth inhibition on p21 status (HCT-116 p21−/− cells [1]): selectively growth inhibitory for HCT-116 cells lacking p21 | sensitization by OSBP knockdown [2]: sensitizes | sensitization (GI50 shift) by OSBP knockdown [2]: 8.9 fold | GI50 (NCI-60): 360 nM | toxicity in xenograft mice (tumor xenograft): without overt toxicity | tumor volume (tumor xenograft): reduction in tumor volume compared to vehicle-treated controls

CC(=O)O[C@H]1C(=O)[C@@]2(C)[C@H]([C@H](OC(=O)c3ccccc3)[C@]3(O)C[C@H](OC(=O)[C@H](O)[C@@H](NC(=O)c4ccccc4)c4ccccc4)C(C)=C1C3(C)C)[C@]1(OC(C)=O)CO[C@@H]1C[C@@H]2O [taxol, reference compound]
sensitization by OSBP knockdown [2]: does not sensitize

CC(C)C[C@H](NC(=O)[C@H](Cc1ccccc1)NC(=O)c1cnccn1)B(O)O [bortezomib, reference compound]
sensitization by OSBP knockdown [2]: does not sensitize

From patent US20110319352A1, “Compounds That Bind Oxysterol Binding Proteins, and Methods of Use Thereof” (President and Fellows of Harvard College, priority 2008, published 2011)
